Experimental data: patent publication US20240228490A1, “HETEROCYCLIC DERIVATIVE INHIBITOR AND PREPARATION METHOD THEREFOR AND APPLICATION THEREOF” (Shanghai Hansoh Biomedical Co., Ltd., priority 2021, published 2024)

Molecular target: PARP1 enzyme (Homo sapiens (Human), UniProt P09874)
Assay: Inhibitory activity on PARP1 enzyme (chemiluminescence)
Assay type: biochemical
Method: The inhibitory activity of the compounds on PARP1 enzyme was determined by the chemiluminescence method in the experiment. The experiment was carried out in a 384-well plate. Coating histones in a 384-well plate: 5×histone solution was diluted 5 folds with PBS, added to a 384-well ELISA plate (25 μL per well), and incubated at 4° C. overnight. […] A mixture of PARP reaction biotin-labeled substrate, activated DNA, 10×PARP buffer and water was added (12.5 μL per well). Compound solutions with different concentrations were formulated using the experimental buffer (10% DMSO aqueous solution containing 1.25 mM DTT). The final detection concentration started from 100 nM, with 3-fold dilution and 8 concentrations. The compound solutions were added to the reaction wells of the 384-well plate (2.5 μL per well). 2.5 μL of 10% DMSO aqueous solution containing 1.25 mM DTT was added to the positive control well and blank well (2.5 μL per well). […] The plate was centrifuged at 1000 rpm for 1 minute, and reacted at room temperature for 60 minutes. […] Streptavidin-HRP solution diluted 50 folds with Blocking buffer 3 was added (25 μL per well), and the plate was incubated at room temperature for 30 minutes. […] The luminescence reaction solution obtained by mixing ECL substrate A and ELISA ECL substrate B (1:1) was added (50 μL per well) for reaction. The chemiluminescence values were measured immediately with a BioTek Synergy H1 or Envision instrument.
The chemiluminescence values were measured with a BioTek Synergy H1 or Envision instrument. The inhibition rate was calculated, and the concentration and inhibition rate were fitted to a nonlinear regression curve using Graphpad Prism software to obtain the IC50 value.

PARP1 enzyme, sequence (P09874 whole entry): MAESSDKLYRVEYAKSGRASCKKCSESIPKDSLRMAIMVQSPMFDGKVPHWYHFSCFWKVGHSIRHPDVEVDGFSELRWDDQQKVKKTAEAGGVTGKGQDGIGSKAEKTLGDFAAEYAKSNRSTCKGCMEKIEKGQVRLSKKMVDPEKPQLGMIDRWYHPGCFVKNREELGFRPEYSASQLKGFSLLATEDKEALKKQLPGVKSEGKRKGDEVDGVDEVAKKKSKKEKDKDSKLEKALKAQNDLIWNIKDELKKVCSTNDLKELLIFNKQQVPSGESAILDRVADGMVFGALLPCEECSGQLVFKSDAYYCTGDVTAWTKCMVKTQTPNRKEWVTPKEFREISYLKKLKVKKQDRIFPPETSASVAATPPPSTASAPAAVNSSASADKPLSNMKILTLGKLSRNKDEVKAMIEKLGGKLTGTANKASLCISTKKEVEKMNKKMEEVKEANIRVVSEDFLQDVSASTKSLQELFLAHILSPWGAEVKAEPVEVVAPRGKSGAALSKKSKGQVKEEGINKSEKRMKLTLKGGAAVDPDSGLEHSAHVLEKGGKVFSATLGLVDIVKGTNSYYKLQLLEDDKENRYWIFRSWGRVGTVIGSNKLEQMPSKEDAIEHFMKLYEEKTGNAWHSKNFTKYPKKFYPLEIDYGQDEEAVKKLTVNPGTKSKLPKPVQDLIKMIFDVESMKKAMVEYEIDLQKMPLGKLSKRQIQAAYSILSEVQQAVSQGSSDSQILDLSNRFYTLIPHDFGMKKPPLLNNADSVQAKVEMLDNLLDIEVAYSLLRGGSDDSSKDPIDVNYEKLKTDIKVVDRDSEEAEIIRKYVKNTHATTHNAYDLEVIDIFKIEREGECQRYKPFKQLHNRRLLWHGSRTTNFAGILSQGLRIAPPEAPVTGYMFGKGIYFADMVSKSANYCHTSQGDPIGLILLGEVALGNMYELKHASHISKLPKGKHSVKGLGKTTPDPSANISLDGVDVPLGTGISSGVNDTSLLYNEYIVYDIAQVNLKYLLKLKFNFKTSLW

| SMILES | IC50 |
| --- | --- |
| CCc1cc2ncc(CN3CCN(c4ccc5c(c4)CN(C)C5=O)CC3)cc2[nH]c1=O [Example 6, 3-Ethyl-7-((4-(2-methyl-1-oxoisoindolin-5-yl)piperazin-1-yl)methyl)-1,5-naphthyridin-2(1H)-one] | 2.9 nM |
| CCc1cc2ncc(CN3CCN(c4ccc5c(c4)CNC5=O)CC3)cc2[nH]c1=O [Example 17, 3-Ethyl-7-((4-(1-oxoisoindolin-5-yl)piperazin-1-yl)methyl)-1,5-naphthyridin-2(1H)-one] | 4.5 nM |
| CCc1cc2ncc(CN3CCN(c4cnc5[nH]ccc5c4)CC3)cc2[nH]c1=O [Example 23, 7-((4-(1H-Pyrrolo[2,3-b]pyridin-5-yl)piperazin-1-yl)methyl)-3-ethyl-1,5-naphthyridin-2(1H)-one] | 3.3 nM |
| CCc1cc2ncc(CN3CCN(c4ccc5nc(C)[nH]c5c4)CC3)cc2[nH]c1=O [Example 24, 3-Ethyl-7-((4-(2-methyl-1H-benzo[d]imidazol-6-yl)piperazin-1-yl)methyl)-1,5-naphthyridin-2(1H)-one] | 1.7 nM |
| CCc1cc2ncc(CN3CC=C(c4ccc(C(=O)N[C@H]5CCOC5)nc4)CC3)cc2[nH]c1=O [Example 31, (S)-1′-((7-Ethyl-6-oxo-5,6-dihydro-1,5-naphthyridin-3-yl)methyl)-N-(tetrahydrofuran-3-yl)-1′,2′,3′,6′-tetrahydro-[3,4′-bipyridine]-6-carboxamide] | 1 nM |
| CCc1cc2ncc(CN3CC=C(c4ccc(C(=O)N[C@@H]5CCOC5)nc4)CC3)cc2[nH]c1=O [Example 32, (R)-1′-((7-Ethyl-6-oxo-5,6-dihydro-1,5-naphthyridin-3-yl)methyl)-N-(tetrahydrofuran-3-yl)-1′,2′,3′,6′-tetrahydro-[3,4′-bipyridine]-6-carboxamide] | 1 nM |
| CCc1cc2ncc(CN3CC=C(c4ccc(C(=O)NC)c(F)c4)CC3)cc2[nH]c1=O [Example 33, 4-(1-((7-Ethyl-6-oxo-5,6-dihydro-1,5-naphthyridin-3-yl)methyl)-1,2,3,6-tetrahydropyridin-4-yl)-2-fluoro-N-methylbenzamide] | 0.91 nM |
| CCc1cc2ncc(CN3CC=C(c4ccc(C(=O)NC)nc4OC)CC3)cc2[nH]c1=O [Example 34, 1′-((7-Ethyl-6-oxo-5,6-dihydro-1,5-naphthyridin-3-yl)methyl)-2-methoxy-N-methyl-1′,2′,3′,6′-tetrahydro-[3,4′-bipyridine]-6-carboxamide] | 1.6 nM |
| CCc1cc2ncc(CN3CC=C(c4ccc(C(=O)NC#N)nc4)CC3)cc2[nH]c1=O [Example 57, N-Cyano-1′-((7-ethyl-6-oxo-5,6-dihydro-1,5-naphthyridin-3-yl)methyl)-1′,2′,3′,6′-tetrahydro-[3,4′-bipyridine]-6-carboxamide] | 2.8 nM |
| CCc1cc2ncc(CN3CC=C(c4ccc(C(=O)NC)c(F)c4Cl)CC3)cc2[nH]c1=O [Example 65, 3-Chloro-4-(1-((7-ethyl-6-oxo-5,6-dihydro-1,5-naphthyridin-3-yl)methyl)-1,2,3,6-tetrahydropyridin-4-yl)-2-fluoro-N-methylbenzamide] | 2.2 nM |
| CCc1cc2ncc(CN3CC=C(c4ccc(C(=O)NC)c(F)c4C)CC3)cc2[nH]c1=O [Example 66, 4-(1-((7-Ethyl-6-oxo-5,6-dihydro-1,5-naphthyridin-3-yl)methyl)-1,2,3,6-tetrahydropyridin-4-yl)-2-fluoro-N,3-dimethylbenzamide] | 1.7 nM |
| CCc1cc2ncc(CN3CC=C(c4ccc(C(=O)NC)c(F)c4F)CC3)cc2[nH]c1=O [Example 67, 4-(1-((7-Ethyl-6-oxo-5,6-dihydro-1,5-naphthyridin-3-yl)methyl)-1,2,3,6-tetrahydropyridin-4-yl)-2,3-difluoro-N-methylbenzamide] | 2.1 nM |
| CCc1cc2ncc(CN3CCN(c4ccc5c(c4)C(=O)N(C)C5=O)CC3)cc2[nH]c1=O [Example 79, 5-(4-((7-Ethyl-6-oxo-5,6-dihydro-1,5-naphthyridin-3-yl)methyl)piperazin-1-yl)-2-methylisoindoline-1,3-dione] | 3.3 nM |
| CCc1cc2ncc(CN3CCN(c4ccc5c(C(=O)NC)ncn5c4)CC3)cc2[nH]c1=O [Example 80, 6-(4-((7-Ethyl-6-oxo-5,6-dihydro-1,5-naphthyridin-3-yl)methyl)piperazin-1-yl)-N-methylimidazo[1,5-a]pyridine-1-carboxamide] | 5 nM |
| CCC1Oc2ncc(CN3CC=C(c4ccc(C(=O)NC)nc4Cl)CC3)cc2NC1=O (centres unmarked) [Example 85, 2-Chloro-1′-((3-ethyl-2-oxo-2,3-dihydro-1H-pyrido[2,3-b][1,4]oxazin-7-yl)methyl)-N-methyl-1′,2′,3′,6′-tetrahydro-[3,4′-bipyridine]-6-carboxamide] | 3.5 nM |
| CCC1Oc2ncc(CN3CC=C(c4ccc(C(=O)NC)nc4C)CC3)cc2NC1=O (centres unmarked) [Example 86, 1′-((3-Ethyl-2-oxo-2,3-dihydro-1H-pyrido[2,3-b][1,4]oxazin-7-yl)methyl)-N,2-dimethyl-1′,2′,3′,6′-tetrahydro-[3,4′-bipyridine]-6-carboxamide] | 5.1 nM |
| CCC1Oc2ccc(CN3CC=C(c4ccc(C(=O)NC)nc4Cl)CC3)cc2NC1=O (centres unmarked) [Example 87, 2-Chloro-1′-((2-ethyl-3-oxo-3,4-dihydro-2H-benzo[b][1,4]oxazin-6-yl)methyl)-N-methyl-1′,2′,3′,6′-tetrahydro-[3,4′-bipyridine]-6-carboxamide] | 4.9 nM |
| CCC1Oc2ccc(CN3CC=C(c4ccc(C(=O)NC)nc4C)CC3)cc2NC1=O (centres unmarked) [Example 88, 1′-((2-Ethyl-3-oxo-3,4-dihydro-2H-benzo[b][1,4]oxazin-6-yl)methyl)-N,2-dimethyl-1′,2′,3′,6′-tetrahydro-[3,4′-bipyridine]-6-carboxamide] | 5 nM |
| CCC1Oc2ncc(CN3CC=C(c4ccc(C(=O)NC)nc4F)CC3)cc2NC1=O (centres unmarked) [Example 90, 1′-((3-Ethyl-2-oxo-2,3-dihydro-1H-pyrido[2,3-b][1,4]oxazin-7-yl)methyl)-2-fluoro-N-methyl-1′,2′,3′,6′-tetrahydro-[3,4′-bipyridine]-6-carboxamide] | 2.7 nM |
| CCn1c(=O)[nH]c2cc(CN3CC=C(c4ccc(C(=O)NC)nc4F)CC3)ccc2c1=O [Example 91, 1′-((3-Ethyl-2,4-dioxo-1,2,3,4-tetrahydroquinazolin-7-yl)methyl)-2-fluoro-N-methyl-1′,2′,3′,6′-tetrahydro-[3,4′-bipyridine]-6-carboxamide] | 3 nM |
